Test results: patent US20030004131A1, “OENOTHEIN MEDICAMENTS” (priority 1999, published 2003)

Legend:
[1] = test system: hen's-egg chorioallantoic membrane (CAM); assay: hen's-egg chorioallantoic membrane (CAM) irritation model with 15% lactic acid as standard irritant; type: in vivo; conditions: CAM treated with 15% lactic acid; sample applied before the irritant (prophylactic use); oenothein-B tested at 1% (weight to volume) dilution
Procedure: In the hen's-egg chorioallantoic membrane (CAM) model, in which the CAM is treated with 15% lactic acid as a standard irritant, the development of manifestations of membrane irritation were tracked and scored according to published methods for assessing irritancy (Luepke and Kemper, 1986, Food and Chemical Toxicology 24:495; Spielmann et al. 1997, Food and Chemical Toxicology 35:39). A sample of the oenothein-B extract from Canadian Willowherb described in Example 1 was tested at a 1% (weight to volume) dilution for activity in the CAM model.

[2] = xanthine oxidase/acetaldehyde spectrophotometric superoxide radical scavenging method; type: biochemical
Procedure: The scavenging of free superoxide radicals is quantitated spectrometrically and expressed in terms of percentage of radicals scavenged. Assays were performed with 1% (w/v) and 0.1% (w/v) dilutions of the dried extract, which yielded up to 100% scavenging activity and up to 99% scavenging activity respectively.

**Q.** Which decrease in irritation [1] does the source give for oenothein-B here?
**A.** up to 70%

**Q.** What about the “scavenging activity (percentage of radicals scavenged)” value ([2]; 0.1% (w/v) dilution of the dried extract) of the same substance?
**A.** up to 99%

**Q.** And the “scavenging activity (percentage of radicals scavenged)” value ([2]; 1% (w/v) dilution of the dried extract)?
**A.** up to 100%
